Target: T1, Human TRPA1 (Homo sapiens, UniProt O75762)
T1 construct: expressed in transfected cells; host or cells: CHO cells
Experiment: 45Calcium uptake assay: inhibition of AITC induced cellular uptake of radioactive calcium
Assay type: cell-based
Conditions: AITC (30 μM) induced 45Ca uptake, Human TRPA1 expressing CHO cells; for inhibition at 1 µM: read-out: Percentage inhibition at 1.0 μM; for inhibition at 10 µM: read-out: Percentage inhibition at 10.0 μM; for IC50: read-out: Human IC50 value (range)
Summary of the method: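 CHO cells stably expressing human TRPA1 (~50,000/well) preincubated 10 min with compound (0.5% DMSO, medium with 0.1% BSA, 1.8 mM CaCl2), then 30 μM AITC plus 5 μCi/ml 45Ca2+ for 3 min. Lysate radioactivity counted by scintillation; IC50 by nonlinear regression of % maximal uptake.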

T1 sequence (O75762 whole entry): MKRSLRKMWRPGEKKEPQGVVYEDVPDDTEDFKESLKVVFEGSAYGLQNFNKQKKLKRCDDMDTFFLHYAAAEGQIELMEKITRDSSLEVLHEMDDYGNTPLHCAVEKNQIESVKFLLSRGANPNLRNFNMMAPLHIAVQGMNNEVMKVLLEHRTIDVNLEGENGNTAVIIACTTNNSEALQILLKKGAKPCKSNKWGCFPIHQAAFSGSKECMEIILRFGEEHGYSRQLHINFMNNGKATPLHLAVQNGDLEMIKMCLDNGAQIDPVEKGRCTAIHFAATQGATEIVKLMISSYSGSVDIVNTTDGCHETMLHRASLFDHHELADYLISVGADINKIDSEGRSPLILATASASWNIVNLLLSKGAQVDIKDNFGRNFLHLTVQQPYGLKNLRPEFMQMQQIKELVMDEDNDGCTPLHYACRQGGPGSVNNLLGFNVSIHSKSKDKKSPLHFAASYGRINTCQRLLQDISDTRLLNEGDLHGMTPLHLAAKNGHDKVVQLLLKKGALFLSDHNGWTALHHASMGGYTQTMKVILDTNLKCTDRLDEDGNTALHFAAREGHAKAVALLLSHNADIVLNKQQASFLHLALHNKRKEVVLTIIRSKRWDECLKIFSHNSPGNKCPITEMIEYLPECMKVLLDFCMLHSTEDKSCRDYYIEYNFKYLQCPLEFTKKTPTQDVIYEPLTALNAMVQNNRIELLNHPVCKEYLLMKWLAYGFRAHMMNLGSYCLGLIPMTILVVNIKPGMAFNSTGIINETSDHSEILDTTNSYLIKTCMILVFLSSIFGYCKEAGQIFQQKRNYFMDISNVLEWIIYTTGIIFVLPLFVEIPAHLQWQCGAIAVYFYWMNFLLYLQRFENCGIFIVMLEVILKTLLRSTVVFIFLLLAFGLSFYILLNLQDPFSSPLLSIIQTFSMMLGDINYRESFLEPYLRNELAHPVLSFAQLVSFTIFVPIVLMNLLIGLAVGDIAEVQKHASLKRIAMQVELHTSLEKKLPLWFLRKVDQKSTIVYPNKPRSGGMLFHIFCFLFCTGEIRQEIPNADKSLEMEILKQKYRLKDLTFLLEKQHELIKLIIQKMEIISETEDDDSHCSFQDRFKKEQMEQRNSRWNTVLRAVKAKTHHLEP

Row | inhibition at 1 µM (1.0 μM test compound) [%] | inhibition at 10 µM (10.0 μM test compound) [%] | IC50 [µM] | Molecule | Percentage inhibition at 1.0 μM (1.0 μM test compound) [%] | Percentage inhibition at 10.0 μM (10.0 μM test compound) [%]
1 | 57.6 | 98.4 |  | Cn1c(=O)c2c(cnn2CC(=O)Nc2nc(-c3ccc(Cl)cc3)cs2)n(C)c1=O [Example 67, N-[4-(4-Chlorophenyl)-1,3-thiazol-2-yl]-2-(4,6-dimethyl-5,7-dioxo-4,5,6,7-tetrahydro-1H-pyrazolo[4,3-d]pyrimidin-1-yl)acetamide] |  | 
2 | 91.3 | 99.4 | > 0.1 | Cn1c(=O)c2c(cnn2CC(=O)Nc2nc(-c3ccc(C(F)(F)F)c(F)c3)cs2)n(C)c1=O [Example 68, 2-(4,6-Dimethyl-5,7-dioxo-4,5,6,7-tetrahydro-1H-pyrazolo[4,3-d]pyrimidin-1-yl)-N-{4-[3-fluoro-4-(trifluoromethyl)phenyl]-1,3-thiazol-2-yl}acetamide] |  | 
3 | 97.3 | 99.8 | < 0.05 | Cn1c(=O)c2c(cnn2CC(=O)Nc2nc(-c3ccc(OCC(C)(C)C)c(F)c3)cs2)n(C)c1=O [Example 69, N-{4-[4-(2,2-Dimethylpropoxy)-3-fluorophenyl]-1,3-thiazol-2-yl}-2-(4,6-dimethyl-5,7-dioxo-4,5,6,7-tetrahydro-1H-pyrazolo[4,3-d]pyrimidin-1-yl)acetamide] |  | 
4 | 91.5 | 98.8 | < 0.05 | Cn1c(=O)c2c(cnn2CC(=O)Nc2nc(-c3ccc(OCC(C)(C)C)c(Cl)c3)cs2)n(C)c1=O [Example 70, N-{4-[3-Chloro-4-(2,2-dimethylpropoxy)phenyl]-1,3-thiazol-2-yl}-2-(4,6-dimethyl-5,7-dioxo-4,5,6,7-tetrahydro-1H-pyrazolo[4,3-d]pyrimidin-1-yl)acetamide] |  | 
5 | 78.2 | 99.3 | 0.05 to 0.1 | Cn1c(=O)c2c(cnn2CC(=O)Nc2nc(-c3ccc(F)c(C(F)(F)F)c3F)cs2)n(C)c1=O [Example 71, N-{4-[2,4-Difluoro-3-(trifluoromethyl)phenyl]-1,3-thiazol-2-yl}-2-(4,6-dimethyl-5,7-dioxo-4,5,6,7-tetrahydro-1H-pyrazolo[4,3-d]pyrimidin-1-yl)acetamide] |  | 
6 | 85.9 | 97.7 | > 0.1 | Cn1c(=O)c2c(cnn2CC(=O)Nc2nc(-c3cc(F)c(OC(F)F)c(F)c3)cs2)n(C)c1=O [Example 72, N-{4-[4-(Difluoromethoxy)-3,5-difluorophenyl]-1,3-thiazol-2-yl}-2-(4,6-dimethyl-5,7-dioxo-4,5,6,7-tetrahydro-1H-pyrazolo[4,3-d]pyrimidin-1-yl)acetamide] |  | 
7 | 99.1 | 99.9 | < 0.05 | Cn1c(=O)c2c(cnn2CC(=O)Nc2nc(-c3cc(F)c(OCC(F)(F)F)c(F)c3)cs2)n(C)c1=O [Example 73, N-{4-[3,5-Difluoro-4-(2,2,2-trifluoroethoxy)phenyl]-1,3-thiazol-2-yl}-2-(4,6-dimethyl-5,7-dioxo-4,5,6,7-tetrahydro-1H-pyrazolo[4,3-d]pyrimidin-1-yl)acetamide] |  | 
8 | 100 | 99.7 | < 0.05 | Cn1c(=O)c2c(cnn2CC(=O)Nc2nc(-c3cc(F)c(OCC(C)(C)C)c(F)c3)cs2)n(C)c1=O [Example 78, N-{4-[4-(2,2-Dimethylpropoxy)-3,5-difluorophenyl]-1,3-thiazol-2-yl}-2-(4,6-dimethyl-5,7-dioxo-4,5,6,7-tetrahydro-1H-pyrazolo[4,3-d]pyrimidin-1-yl)acetamide] |  | 
9 | 100 | 100 | < 0.05 | Cn1c(=O)c2c(cnn2CC(=O)Nc2nc(-c3cc(Cl)c(OCC(C)(C)C)c(Cl)c3)cs2)n(C)c1=O [Example 79, N-{4-[3,5-Dichloro-4-(2,2-dimethylpropoxy)phenyl]-1,3-thiazol-2-yl}-2-(4,6-dimethyl-5,7-dioxo-4,5,6,7-tetrahydro-1H-pyrazolo[4,3-d]pyrimidin-1-yl)acetamide] |  | 
10 | 100 | 100 | < 0.05 | Cn1c(=O)c2c(cnn2CC(=O)Nc2nc(-c3cc(F)c(OCC(C)(C)C)c(Cl)c3)cs2)n(C)c1=O [Example 80, N-{4-[3-Chloro-4-(2,2-dimethylpropoxy)-5-fluorophenyl]-1,3-thiazol-2-yl}-2-(4,6-dimethyl-5,7-dioxo-4,5,6,7-tetrahydro-1H-pyrazolo[4,3-d]pyrimidin-1-yl)acetamide] |  | 
11 | 94 | 100 | < 0.05 | Cn1c(=O)c2c(cnn2CC(=O)Nc2nc(-c3cc(F)c(OCC4CCC4)c(F)c3)cs2)n(C)c1=O [Example 81, N-{4-[4-(Cyclobutylmethoxy)-3,5-difluorophenyl]-1,3-thiazol-2-yl}-2-(4,6-dimethyl-5,7-dioxo-4,5,6,7-tetrahydro-1H-pyrazolo[4,3-d]pyrimidin-1-yl)acetamide] |  | 

The remaining lines, values behind:

Row | Molecule | inhibition at 1 µM (1.0 μM test compound) [%] | inhibition at 10 µM (10.0 μM test compound) [%] | IC50 [µM] | Percentage inhibition at 1.0 μM (1.0 μM test compound) [%] | Percentage inhibition at 10.0 μM (10.0 μM test compound) [%]
12 | Cn1nc2c(c1CC(=O)Nc1cc(-c3ccc(Br)cc3)on1)c(=O)n(C)c(=O)n2C [Example 65, N-[5-(4-Bromophenyl)isoxazol-3-yl]-2-(2,5,7-trimethyl-4,6-dioxo-4,5,6,7-tetrahydro-2H-pyrazolo[3,4-d]pyrimidin-3-yl)acetamide] | 12.5 | 24.6 |  |  | 
13 | Cn1nc2c(c1CC(=O)Nc1nc3cc(OC(F)(F)F)ccc3s1)c(=O)n(C)c(=O)n2C [Example 66, N-[5-(Trifluoromethoxy)-1,3-benzothiazol-2-yl]-2-(2,5,7-trimethyl-4,6-dioxo-4,5,6,7-tetrahydro-2H-pyrazolo[3,4-d]pyrimidin-3-yl)acetamide] | 45 | 71.5 |  |  | 
14 | CC(C)COc1c(F)cc(-c2csc(NC(=O)Cn3ncc4c3c(=O)n(C)c(=O)n4C)n2)cc1F [Example 74, N-[4-(3,5-Difluoro-4-isobutoxyphenyl)-1,3-thiazol-2-yl]-2-(4,6-dimethyl-5,7-dioxo-4,5,6,7-tetrahydro-1H-pyrazolo[4,3-d]pyrimidin-1-yl)acetamide] | 92.1 | 98.8 | < 0.05 |  | 
15 | CC(C)COc1c(Cl)cc(-c2csc(NC(=O)Cn3ncc4c3c(=O)n(C)c(=O)n4C)n2)cc1Cl [Example 75, N-[4-(3,5-Dichloro-4-isobutoxyphenyl)-1,3-thiazol-2-yl]-2-(4,6-dimethyl-5,7-dioxo-4,5,6,7-tetrahydro-1H-pyrazolo[4,3-d]pyrimidin-1-yl)acetamide] | 99.3 | 100 | < 0.05 |  | 
16 | CC(C)CCOc1c(F)cc(-c2csc(NC(=O)Cn3ncc4c3c(=O)n(C)c(=O)n4C)n2)cc1F [Example 76, N-{4-[3,5-Difluoro-4-(3-methylbutoxy)phenyl]-1,3-thiazol-2-yl}-2-(4,6-dimethyl-5,7-dioxo-4,5,6,7-tetrahydro-1H-pyrazolo[4,3-d]pyrimidin-1-yl)acetamide] | 84.3 | 95.6 | > 0.1 |  | 
17 | Cc1nn(CC(=O)Nc2nc(-c3cc(F)c(OCC(C)(C)C)c(F)c3)cs2)c2c(=O)n(C)c(=O)n(C)c12 [Example 82, N-[4-(3,5-Difluoro-4-(2,2-dimethylpropoxy)phenyl)-1,3-thiazol-2-yl]-2-(3,4,6-trimethyl-5,7-dioxo-4,5,6,7-tetrahydro-1H-pyrazolo[4,3-d]pyrimidin-1-yl)acetamide] | 92.8 | 99 | 0.05 to 0.1 |  | 
18 | Cc1nn(CC(=O)Nc2nc(-c3cc(Cl)c(OCC(C)(C)C)c(Cl)c3)cs2)c2c(=O)n(C)c(=O)n(C)c12 [Example 83, N-[4-(3,5-Dichloro-4-(2,2-dimethylpropoxy)phenyl)-1,3-thiazol-2-yl]-2-(3,4,6-trimethyl-5,7-dioxo-4,5,6,7-tetrahydro-1H-pyrazolo[4,3-d]pyrimidin-1-yl)acetamide] | 75.6 | 95 | < 0.05 |  | 
19 | Cn1c(=O)c2c(cnn2CC(=O)Nc2cc(-c3ccc(Br)cc3)on2)n(C)c1=O [Example 84, N-[5-(4-Bromophenyl)isoxazol-3-yl]-2-(4,6-dimethyl-5,7-dioxo-4,5,6,7,-tetrahydro-1H-pyrazolo[4,3-d]pyrimidin-1-yl)acetamide] | 17.2 | 83.9 |  |  | 
20 | Cn1nc2c(c1CC(=O)Nc1nc(-c3ccc(C(F)(F)F)c(F)c3)c[nH]1)c(=O)n(C)c(=O)n2C [Example 85, N-{4-[3-Fluoro-4-(trifluoromethyl)phenyl]-1H-imidazol-2-yl]-2-(2,5,7-trimethyl-4,6-dioxo-4,5,6,7-tetrahydro-2H-pyrazolo[3,4-d]pyrimidin-3-yl)acetamide] | 44.1 | 78.2 |  |  | 
21 | N-{4-[3,5-Dichloro-4-isobutoxyphenyl]-1,3-thiazol-2-yl}-2-(4,6-dimethyl-5,7-dioxo-4,5,6,7-tetrahydro-1H-pyrazolo[4,3-d]pyrimidin-1-yl)acetamide [Example 77] |  |  | 0.05 to 0.1 | 89.48 | 99.58

— US9000159B2 (Glenmark Pharmaceuticals, S.A., priority 2009, dated 2015)
